The source made the active and inactive calls. No cut-off for these calls is given here.
Columns and labels:
[1] = (§1) Spasmolytic activity in rabbit ileum assessed as decrease in amplitude of contraction at 10 uM measured for 5 mins; assay type: functional, Oryctolagus cuniculus; set-up: scale not given: the % may be the effect or the level left
[2] = tested on: Rattus norvegicus; experiment: Hypotensive activity in normotensive Wistar rat assessed as decrease in diastolic blood pressure at 0.125 mg/kg, iv up to 60 mins; assay type: functional, organism-based; set-up: dose 0.125 mg/kg; conditions: Artery
[3] = (§2) Spasmolytic activity in rabbit ileum assessed as decrease in amplitude of contraction at 100 uM measured for 5 mins; assay type: functional, Oryctolagus cuniculus; set-up: scale not given: the % may be the effect or the level left
[4] = tested on: Rattus norvegicus; experiment: Effect on heart rate in anesthetized Wistar rat assessed as decrease in heart rate at 1 mg/kg, iv up to 15mins by electrocardiography; assay type: functional; set-up: scale not given: the % may be the effect or the level left
[5] = target: T1, Adrenergic receptor alpha-1 (Rattus norvegicus, UniProt P15823+P23944+P43140); experiment: Displacement of [3H]Prazosin from alpha1 adrenergic receptor in Wistar rat cerebral cortex membrane by liquid scintillation counting; assay type: tissue-based
T1 sequence (P15823 whole entry): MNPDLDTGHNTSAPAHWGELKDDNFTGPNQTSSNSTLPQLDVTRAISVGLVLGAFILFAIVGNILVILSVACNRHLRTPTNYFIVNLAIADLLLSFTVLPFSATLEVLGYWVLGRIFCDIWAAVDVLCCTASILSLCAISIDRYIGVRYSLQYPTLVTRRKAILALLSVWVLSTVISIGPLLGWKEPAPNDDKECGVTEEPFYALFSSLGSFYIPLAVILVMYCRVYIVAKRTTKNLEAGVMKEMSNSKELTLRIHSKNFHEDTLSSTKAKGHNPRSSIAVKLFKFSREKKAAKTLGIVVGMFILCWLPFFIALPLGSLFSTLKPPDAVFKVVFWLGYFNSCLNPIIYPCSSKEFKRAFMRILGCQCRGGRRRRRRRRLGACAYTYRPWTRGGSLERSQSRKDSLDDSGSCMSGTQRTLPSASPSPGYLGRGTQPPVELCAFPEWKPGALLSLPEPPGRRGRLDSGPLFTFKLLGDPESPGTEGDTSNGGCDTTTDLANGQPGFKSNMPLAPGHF
T1 sequence (P23944 whole entry): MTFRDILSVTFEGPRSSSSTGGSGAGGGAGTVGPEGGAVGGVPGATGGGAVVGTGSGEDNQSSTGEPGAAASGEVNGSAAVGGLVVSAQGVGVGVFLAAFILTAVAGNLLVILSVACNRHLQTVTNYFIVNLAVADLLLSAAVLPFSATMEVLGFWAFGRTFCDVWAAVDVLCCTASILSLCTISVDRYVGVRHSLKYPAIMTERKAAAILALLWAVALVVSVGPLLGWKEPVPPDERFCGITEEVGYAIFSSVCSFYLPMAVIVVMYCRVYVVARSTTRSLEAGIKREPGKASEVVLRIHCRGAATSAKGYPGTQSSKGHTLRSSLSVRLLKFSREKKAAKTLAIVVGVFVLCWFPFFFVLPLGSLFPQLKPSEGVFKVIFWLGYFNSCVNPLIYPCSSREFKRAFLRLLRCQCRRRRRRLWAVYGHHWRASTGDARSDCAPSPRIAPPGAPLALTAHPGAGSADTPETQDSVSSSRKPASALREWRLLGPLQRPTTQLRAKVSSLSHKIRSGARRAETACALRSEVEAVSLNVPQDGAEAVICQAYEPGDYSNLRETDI
T1 sequence (P43140 whole entry): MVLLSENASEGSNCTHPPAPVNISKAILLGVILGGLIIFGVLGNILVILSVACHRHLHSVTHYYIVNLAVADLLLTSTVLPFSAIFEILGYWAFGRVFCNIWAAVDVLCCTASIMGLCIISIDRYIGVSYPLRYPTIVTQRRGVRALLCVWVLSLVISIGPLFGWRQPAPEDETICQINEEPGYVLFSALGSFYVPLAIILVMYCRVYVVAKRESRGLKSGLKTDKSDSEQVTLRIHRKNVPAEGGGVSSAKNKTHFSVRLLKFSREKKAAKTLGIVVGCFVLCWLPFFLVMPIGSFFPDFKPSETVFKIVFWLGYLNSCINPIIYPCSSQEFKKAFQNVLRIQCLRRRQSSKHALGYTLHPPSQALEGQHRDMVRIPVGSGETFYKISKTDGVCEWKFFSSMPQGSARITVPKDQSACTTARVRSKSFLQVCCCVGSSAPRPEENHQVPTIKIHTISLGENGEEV

[6] = tested on: Rattus norvegicus; experiment: Hypotensive activity in normotensive Wistar rat assessed as decrease in diastolic blood pressure at 0.25 to 1 mg/kg, iv up to 60 mins; assay type: functional, Artery; set-up: scale not given: the % may be the effect or the level left; conditions: dose mg/kg 0.25-1
[7] = tested on: Rattus norvegicus; experiment: Effect on heart rate in anesthetized Wistar rat assessed as Q-T intervals time at 1 mg/kg, iv after 15 mins by electrocardiography; assay type: functional
[8] = tested on: Rattus norvegicus; experiment: Hypotensive activity in normotensive Wistar rat assessed as decrease in systolic blood pressure at 0.25 to 1 mg/kg, iv up to 60 mins; assay type: functional; set-up: scale not given: the % may be the effect or the level left; conditions: dose mg/kg 0.25-1
[9] = tested on: Rattus norvegicus; experiment: Hypotensive activity in normotensive Wistar rat assessed as decrease in systolic blood pressure at 0.125 mg/kg, iv up to 60 mins; assay type: functional, organism-based; set-up: dose 0.125 mg/kg; conditions: Artery
[10] = organism: Oryctolagus cuniculus; experiment: as §1; assay type: functional
[11] = organism: Oryctolagus cuniculus; experiment: as §2; assay type: functional
[12] = tested on: Rattus norvegicus; experiment: Hypotensive activity in normotensive Wistar rat assessed as decrease in diastolic blood pressure at 0.0312 mg/kg, iv up to 60 mins; assay type: functional, organism-based; set-up: dose 0.0312 mg/kg; conditions: Artery
[13] = tested on: Rattus norvegicus; experiment: Hypotensive activity in normotensive Wistar rat assessed as decrease in systolic blood pressure at 0.125 to 1 mg/kg, iv up to 60 mins; assay type: functional, organism-based; conditions: Artery
[14] = tested on: Rattus norvegicus; experiment: Hypotensive activity in normotensive Wistar rat assessed as decrease in systolic blood pressure at 0.0312 mg/kg, iv up to 60 mins; assay type: functional, organism-based; set-up: dose 0.0312 mg/kg; conditions: Artery
[15] = tested on: Rattus norvegicus; experiment: Hypotensive activity in normotensive Wistar rat assessed as decrease in diastolic blood pressure at 1 to 5 mg/kg, iv up to 60 mins; assay type: functional, organism-based; conditions: Artery
[16] = tested on: Rattus norvegicus; experiment: Hypotensive activity in normotensive Wistar rat assessed as decrease in diastolic blood pressure at 0.0625 mg/kg, iv up to 60 mins; assay type: functional, organism-based; set-up: dose 0.0625 mg/kg; conditions: Artery
[17] = tested on: Rattus norvegicus; experiment: Hypotensive activity in normotensive Wistar rat assessed as decrease in systolic blood pressure at 0.0625 mg/kg, iv up to 60 mins; assay type: functional, organism-based; set-up: dose 0.0625 mg/kg; conditions: Artery
[18] = tested on: Rattus norvegicus; experiment: Hypotensive activity in normotensive Wistar rat assessed as decrease in diastolic blood pressure at 0.125 mg/kg, iv up to 10 mins; assay type: functional, organism-based; set-up: dose 0.125 mg/kg; conditions: Artery
[19] = tested on: Rattus norvegicus; experiment: Hypotensive activity in normotensive Wistar rat assessed as decrease in systolic blood pressure at 0.125 mg/kg, iv up to 30 mins; assay type: functional, organism-based; set-up: dose 0.125 mg/kg; conditions: Artery

Compound	Activity [1]	Activity [2]	Activity [3]	Activity [4]	Ki [5]	Activity [6]	Activity [7]	Activity [8]	Activity [9]	Activity [10]	Activity [11]	Activity [12]	Activity [13]	Activity [14]	Activity [15]	Activity [16]	Activity [17]	Activity [18]	Activity [19]
COc1ccccc1OCCNC[C@H](O)COc1ccc(OC)c2[nH]ccc12	10%	inactive	10%	10%	168.8 nM	13%	83 ms	12%	inactive	–	–	–	–	–	–	–	–	–	–
COc1ccccc1OCCNC[C@H](O)COc1c(OC)ccc2[nH]ccc12	–	–	–	–	11.3 nM	–	118 ms	–	–	Active	Active	inactive	Active	inactive	Active	–	–	–	–
COc1ccccc1OCCNC[C@@H](O)COc1ccc(OC)c2[nH]ccc12	–	inactive	–	10%	60.9 nM	13%	81.7 ms	12%	inactive	–	–	–	–	–	–	–	–	–	–
COc1ccccc1OCCNC[C@@H](O)COc1c(OC)ccc2[nH]ccc12	–	–	–	–	45.8 nM	–	113.3 ms	–	–	Active	Active	–	Active	–	Active	inactive	inactive	–	–
COc1ccccc1OCCNCC(O)COc1ccc(OC)c2[nH]ccc12 (racemic)	10%	inactive	10%	10%	75.8 nM	13%	79.2 ms	12%	inactive	inactive	inactive	–	–	–	–	–	–	–	–
COc1ccccc1OCCNCC(O)COc1c(OC)ccc2[nH]ccc12 (racemic)	–	–	–	–	21.1 nM	8%	118 ms	7%	–	inactive	Active	–	Active	–	Active	–	–	Active	Active
